The values below come from ChEMBL document CHEMBL1143950, “Antifungal and cytotoxic activities of some N-substituted aniline derivatives bearing a hetaryl fragment” (Bioorg Med Chem, 2008).

The test system of one assay is NCI-H460. Kind of assay: Cytotoxicity against human H460 cells by SRB assay. The assay is classed as functional, cell-based.
Another assay deals with SF-268. Description: Cytotoxicity against human SF268 cells by SRB assay. The assay is classed as functional, cell-based. For orientation: Sulforhodamine B stains cellular protein and so reports cell mass.
The subject of assay [1] is Trichophyton mentagrophytes. Description: Antifungal activity against Trichophyton mentagrophytes ATCC 9972 by micro-broth dilution method. The assay is classed as functional.
The test system of a further assay is Nannizzia gypsea. Description: Antifungal activity against Microsporum gypseum C115 by microbroth dilution method. The assay is classed as functional. (In general: In broth dilution the organism is exposed to a series of concentrations in liquid medium.)
For the next assay, the system named is Aspergillus niger. Kind of assay: Antifungal activity against Aspergillus niger ATCC 9029 by micro-broth dilution method. The assay is classed as functional.
In the next assay the test system is Aspergillus flavus. Kind of assay: Antifungal activity against Aspergillus flavus ATCC 9170 by micro-broth dilution method. The assay is classed as functional.
For another assay, the system named is Saccharomyces cerevisiae. Description: Antifungal activity against Saccharomyces cerevisiae ATCC 9763 by microbroth dilution method. The assay is classed as functional.
The next assay concerns Candida albicans. Kind of assay: Antifungal activity against Candida albicans ATCC 10231 by micro-broth dilution method. The assay is classed as functional.
For the next assay, the system named is Aspergillus fumigatus. Kind of assay: Antifungal activity against Aspergillus fumigatus ATCC 26934 by micro-broth dilution method. The assay is classed as functional.
The next assay concerns Candida tropicalis. Kind of assay: Antifungal activity against Candida tropicalis C131 by micro-broth dilution method. The assay is classed as functional.
The next assay deals with Trichophyton rubrum. Kind of assay: Antifungal activity against Trichophyton rubrum C113 by microbroth dilution method. The assay is classed as functional.
Assay [2] has as its system Cryptococcus neoformans. Description: Antifungal activity against Cryptococcus neoformans ATCC 32264 by microbroth dilution method. The assay is classed as functional.
The subject of assay [3] is Cryptococcus neoformans. Kind of assay: Antifungal activity against Cryptococcus neoformans IM 031706 by micro-broth dilution method. The assay is classed as functional.
The subject of assay [4] is Cryptococcus neoformans. Description: Antifungal activity against Cryptococcus neoformans IM 00319 by microbroth dilution method. The assay is classed as functional.
Assay [5] deals with Cryptococcus neoformans. Description: Antifungal activity against Cryptococcus neoformans IM 031631 by micro-broth dilution method. The assay is classed as functional.
The subject of assay [6] is Cryptococcus neoformans. Description: Antifungal activity against Cryptococcus neoformans IM 042074 by micro-broth dilution method. The assay is classed as functional.
Assay [7] concerns Cryptococcus neoformans. Kind of assay: Antifungal activity against Cryptococcus neoformans IM 983036 by micro-broth dilution method. The assay is classed as functional.
In assay [8] the test system is Cryptococcus neoformans. Kind of assay: Antifungal activity against Cryptococcus neoformans IM 972751 by microbroth dilution method. The assay is classed as functional.
The test system of assay [9] is Cryptococcus neoformans. Description: Antifungal activity against Cryptococcus neoformans IM 972724 by micro-broth dilution method. The assay is classed as functional.
The subject of assay [10] is Cryptococcus neoformans. Description: Antifungal activity against Cryptococcus neoformans IM 961951 by micro-broth dilution method. The assay is classed as functional.
Assay [11] relates to Cryptococcus neoformans. Description: Antifungal activity against Cryptococcus neoformans IM 983040 by micro-broth dilution method. The assay is classed as functional.

The structures appear in SMILES notation. Converted amounts (≈) assume the structure as drawn.

By IC50 is commonly meant the concentration that inhibits the measured activity by half. A lower IC50 goes with higher potency. As for `COc1cccc2c1C(=O)c1c(O)c3c(c(O)c1C2=O)C[C@@](O)(C(=O)CO)C[C@@H]3O[C@H]1C[C@H](N)[C@H](O)[C@H](C)O1` [DOXORUBICIN], the values for the IC50 with NCI-H460 and with SF-268 were 0.18 µg/mL (≈ 0.331 µM) and 0.14 µg/mL (≈ 0.258 µM), respectively.
As a reminder, the MIC is the lowest concentration that inhibits growth of the organism. `Clc1ccc(NCc2ccco2)cc1`: the MIC in [1] is 12.5 µg/mL (≈ 60.2 µM); against Nannizzia gypsea it was 12.5 µg/mL (≈ 60.2 µM); in the assay with Aspergillus niger it was 62.5 µg/mL (≈ 301 µM); in the assay on Aspergillus flavus, 50 µg/mL (≈ 241 µM); against Saccharomyces cerevisiae, 50 µg/mL (≈ 241 µM); in the assay with Candida albicans it was 62.5 µg/mL (≈ 301 µM). In addition, the MIC turned out to be 50 µg/mL (≈ 241 µM) against Aspergillus fumigatus, 62.5 µg/mL (≈ 301 µM) in the assay with Candida tropicalis, 6.25 µg/mL (≈ 30.1 µM) with Trichophyton rubrum and 50 µg/mL (≈ 241 µM) in the assay on Cryptococcus neoformans [2].
`N#CC(Nc1ccccc1)c1ccoc1` (stereo unspecified): the MIC in assay [1] is 250 µg/mL (≈ 1260 µM); in the assay with Nannizzia gypsea, greater than 250 µg/mL; against Aspergillus niger it was greater than 250 µg/mL; against Aspergillus flavus, greater than 250 µg/mL; in the assay on Saccharomyces cerevisiae it was greater than 250 µg/mL; against Candida albicans, greater than 250 µg/mL. In addition, the MIC in the assay on Aspergillus fumigatus was greater than 250 µg/mL; in the assay on Candida tropicalis, greater than 250 µg/mL; in the assay with Trichophyton rubrum, 250 µg/mL (≈ 1260 µM); against Cryptococcus neoformans [2], greater than 250 µg/mL.
Turning to `Cc1ccc(NCc2ccsc2)cc1`, the MIC in assay [1] was 125 µg/mL (≈ 615 µM); against Nannizzia gypsea it was 250 µg/mL (≈ 1230 µM); against Aspergillus niger, 250 µg/mL (≈ 1230 µM); in the assay on Aspergillus flavus, 250 µg/mL (≈ 1230 µM); against Saccharomyces cerevisiae it was greater than 250 µg/mL; against Candida albicans, greater than 250 µg/mL. The MIC is 250 µg/mL (≈ 1230 µM) in the assay with Aspergillus fumigatus, greater than 250 µg/mL with Candida tropicalis, 125 µg/mL (≈ 615 µM) with Trichophyton rubrum and 250 µg/mL (≈ 1230 µM) in the assay with Cryptococcus neoformans [2].
Take `Ic1ccc(NCc2ccccn2)cc1`: the MIC is 25 µg/mL (≈ 80.6 µM) in assay [1]; 25 µg/mL (≈ 80.6 µM) in the assay on Nannizzia gypsea; 100 µg/mL (≈ 322 µM) with Aspergillus niger; 100 µg/mL (≈ 322 µM) in the assay on Aspergillus flavus; 200 µg/mL (≈ 645 µM) with Saccharomyces cerevisiae; greater than 250 µg/mL with Candida albicans. In addition, the MIC in the assay on Aspergillus fumigatus is 200 µg/mL (≈ 645 µM); against Candida tropicalis it was greater than 250 µg/mL; against Trichophyton rubrum, 25 µg/mL (≈ 80.6 µM); in the assay with Cryptococcus neoformans [2], 100 µg/mL (≈ 322 µM).
Consider `C[C@@H](c1ncncc1F)[C@](O)(Cn1cncn1)c1ccc(F)cc1F` [VORICONAZOLE], for which the MIC was 0.015 µg/mL (≈ 0.0429 µM) in the assay with Cryptococcus neoformans [3]; 0.03 µg/mL (≈ 0.0859 µM) with Cryptococcus neoformans [4]; 0.5 µg/mL (≈ 1.43 µM) with Cryptococcus neoformans [5]; less than 0.015 µg/mL in the assay on Cryptococcus neoformans [6]; less than 0.015 µg/mL with Cryptococcus neoformans [7]; 0.25 µg/mL (≈ 0.716 µM) against Cryptococcus neoformans [8]. In addition, the figures for the MIC against Cryptococcus neoformans [9], in the assay on Cryptococcus neoformans [10] and in the assay on Cryptococcus neoformans [11] were less than 0.015 µg/mL, 0.03 µg/mL (≈ 0.0859 µM) and less than 0.015 µg/mL, respectively.
Regarding `COc1ccc(CNc2cccc([N+](=O)[O-])c2)cc1`, the MIC (in [1]; in the assay with Nannizzia gypsea; in the assay with Aspergillus niger; against Aspergillus flavus; in the assay on Saccharomyces cerevisiae; in the assay with Candida albicans) was greater than 250 µg/mL each time. In addition, the MIC against Aspergillus fumigatus, against Candida tropicalis, against Trichophyton rubrum and in the assay on Cryptococcus neoformans [2] was greater than 250 µg/mL each time.
For the compound `COc1ccc(NCc2ccco2)cc1`, the MIC in [1] was 50 µg/mL (≈ 246 µM); in the assay on Nannizzia gypsea, 100 µg/mL (≈ 492 µM); against Aspergillus niger, 250 µg/mL (≈ 1230 µM); against Aspergillus flavus, 250 µg/mL (≈ 1230 µM); against Saccharomyces cerevisiae it was greater than 250 µg/mL; against Candida albicans, greater than 250 µg/mL. Besides, the MIC in the assay on Aspergillus fumigatus was 250 µg/mL (≈ 1230 µM); against Candida tropicalis, greater than 250 µg/mL; with Trichophyton rubrum it was 100 µg/mL (≈ 492 µM); against Cryptococcus neoformans [2], greater than 250 µg/mL.
On to `C=CCC(Nc1ccc(C)cc1)c1cccs1` (stereo unspecified), for which the MIC in [1] is 6.25 µg/mL (≈ 25.7 µM); against Nannizzia gypsea, 50 µg/mL (≈ 205 µM); in the assay on Aspergillus niger, greater than 250 µg/mL; in the assay on Aspergillus flavus it was greater than 250 µg/mL; with Saccharomyces cerevisiae, greater than 250 µg/mL; against Candida albicans, greater than 250 µg/mL. The MIC was greater than 250 µg/mL with Aspergillus fumigatus, greater than 250 µg/mL in the assay with Candida tropicalis, 12.5 µg/mL (≈ 51.4 µM) against Trichophyton rubrum and greater than 250 µg/mL with Cryptococcus neoformans [2].
For the compound `C=CCC(Nc1ccccc1)c1ccncc1` (stereo unspecified), the MIC in [1] was determined as 62.5 µg/mL (≈ 279 µM); in the assay on Nannizzia gypsea, 125 µg/mL (≈ 557 µM); against Aspergillus niger, 250 µg/mL (≈ 1110 µM); in the assay with Aspergillus flavus, 250 µg/mL (≈ 1110 µM); against Saccharomyces cerevisiae, 125 µg/mL (≈ 557 µM); with Candida albicans, 250 µg/mL (≈ 1110 µM). Moreover, the MIC in the assay on Aspergillus fumigatus, against Candida tropicalis, with Trichophyton rubrum and against Cryptococcus neoformans [2] was 250 µg/mL (≈ 1110 µM) in each case.
For the compound `Cc1ccc(NCc2cccc(N)c2)cc1`, the MIC in assay [1] amounted to 100 µg/mL (≈ 471 µM); against Nannizzia gypsea, 100 µg/mL (≈ 471 µM); with Aspergillus niger, 12.5 µg/mL (≈ 58.9 µM); against Aspergillus flavus, 25 µg/mL (≈ 118 µM); against Saccharomyces cerevisiae it was 100 µg/mL (≈ 471 µM); with Candida albicans, 50 µg/mL (≈ 236 µM). Moreover, the MIC against Aspergillus fumigatus is 25 µg/mL (≈ 118 µM); in the assay with Candida tropicalis, 50 µg/mL (≈ 236 µM); in the assay on Trichophyton rubrum, 100 µg/mL (≈ 471 µM); against Cryptococcus neoformans [2], 100 µg/mL (≈ 471 µM).
